Assay results from ChEMBL document CHEMBL3301361, “Experimental in vitro DMPK and physicochemical data on a set of publicly disclosed compounds”.
In brackets after ≈: the same amount, converted by molar mass.

Test: physchem
Settings: pH 7.4 buffer

| solubility thermodynamic | SMILES |
| --- | --- |
| 12 µM (≈ 3.16 µg/mL) | COc1ccc(Cl)cc1NC(=O)c1cnccn1 |
| 21.4 µM (≈ 8.12 µg/mL) | COc1cc(Oc2ccc(C(=O)NCc3ccncc3)cc2)ccc1[N+](=O)[O-] |
| 10 µM (≈ 4.35 µg/mL) | COc1cc2ncnc(Nc3cc(NC(=O)c4ccccc4)ccc3Cl)c2cc1OC |
| 32.4 µM (≈ 14 µg/mL) | CCn1ccc(NC(=O)Cc2ccc(Oc3ncnc4cc(OC)c(OC)cc34)cc2)n1 |
| 24 µM (≈ 10.4 µg/mL) | CCn1cc(NC(=O)Cc2ccc(Oc3ncnc4cc(OC)c(OC)cc34)cc2)cn1 |
| 10.7 µM (≈ 4.63 µg/mL) | CCn1cc(NC(=O)Cc2ccc(Oc3ccnc4cc(OC)c(OC)cc34)cc2)cn1 |
| 11 µM (≈ 5.09 µg/mL) | CCc1cc(NC(=O)Cc2ccc(Oc3ccnc4cc(OC)c(OC)cc34)cc2OC)[nH]n1 |
| 8.5 µM (≈ 3.68 µg/mL) | CCc1cc(NC(=O)Cc2ccc(Oc3ccnc4cc(OC)ccc34)cc2OC)n[nH]1 |
| 8.9 µM (≈ 4.12 µg/mL) | COc1cc(Oc2ccnc3cc(OC)c(OC)cc23)ccc1CC(=O)Nc1cn(C)nc1C |
| 10.7 µM (≈ 4.63 µg/mL) | COc1ccc2c(Oc3ccc(CC(=O)Nc4cnn(C)c4C)c(OC)c3)ccnc2c1 |
| 17.4 µM (≈ 7.54 µg/mL) | CCn1cc(NC(=O)Cc2ncc(Oc3ccnc4cc(OC)ccc34)cc2OC)cn1 |
| 15.1 µM (≈ 6.55 µg/mL) | COc1ccc2c(Oc3cnc(CC(=O)Nc4cn(C)nc4C)c(OC)c3)ccnc2c1 |
| 15.8 µM (≈ 6.85 µg/mL) | CCn1cc(NC(=O)Cc2ccc(Oc3ccnc4cc(OC)c(OC)cc34)cn2)cn1 |
| 9.1 µM (≈ 3.95 µg/mL) | CC(C)Oc1cc(O[C@@H](C)Cc2ccccc2)cc(C(=O)Nc2ccc(C(=O)O)cn2)c1 |
| 18.2 µM (≈ 4.14 µg/mL) | COc1ccc(C(=O)Nc2ccccc2)cc1 |
| 10 µM (≈ 4.44 µg/mL) | COc1cc2ncnc(Nc3cccc(Cl)c3F)c2cc1CN1CCCC[C@@H]1C(N)=O |

| solubility thermodynamic | SMILES |
| --- | --- |
| 14.1 µM (≈ 7.16 µg/mL) | C[C@H](COc1cccc2ncnc(Nc3ccc(OCc4ccccn4)c(Cl)c3)c12)N(C)C(=O)CO |
| 22.9 µM (≈ 10.5 µg/mL) | Cc1ccc(Oc2ccc(Nc3ncnc4cccc(O[C@H](C)C(=O)N(C)C)c34)cc2C)cn1 |
| 8.1 µM (≈ 3.92 µg/mL) | C[C@H](Oc1cccc2ncnc(Nc3ccc4c(cnn4Cc4cccc(F)c4)c3)c12)C(=O)N(C)C |
| 29.5 µM (≈ 14 µg/mL) | C[C@@H](Oc1cccc2ncnc(Nc3ccc4c(cnn4Cc4nccs4)c3)c12)C(=O)N(C)C |
| 31.6 µM (≈ 15 µg/mL) | C[C@H](Oc1cccc2ncnc(Nc3ccc4c(cnn4Cc4nccs4)c3)c12)C(=O)N(C)C |
| 11.2 µM (≈ 5.62 µg/mL) | COCCN(C)C(=O)[C@@H](C)Oc1cccc2ncnc(Nc3ccc(Oc4ccc(C)nc4)c(C)c3)c12 |
| 10.2 µM (≈ 4.71 µg/mL) | COc1cc2c(Nc3c(Cl)ccc4c3OCO4)ncnc2cc1OCc1ccnc(C#N)c1 |
| 13.2 µM (≈ 5.33 µg/mL) | COc1cc2ncnc(Nc3cccc(Cl)c3F)c2cc1CN(C)CC(N)=O |
| 25.7 µM (≈ 12.5 µg/mL) | COc1cc2ncnc(Nc3cccc(Cl)c3F)c2cc1CN(C)C1(C(N)=O)CN(C(C)C)C1 |
| 10.7 µM (≈ 4.85 µg/mL) | CN(C)C(=O)COc1cccc2ncnc(Nc3ccc4c(cnn4Cc4ccccn4)c3)c12 |
| 26.3 µM (≈ 12 µg/mL) | Cc1ccc(Oc2ccc(Nc3ncnc4cccc(O[C@@H](C)C(=O)N(C)C)c34)cc2C)cn1 |
| 31.6 µM (≈ 15.8 µg/mL) | Cc1ccc(Oc2ccc(Nc3ncnc4cccc(O[C@@H](C)C(=O)N5CCOCC5)c34)cc2C)cn1 |
| 8.5 µM (≈ 3.69 µg/mL) | CC(C)Oc1cc(O[C@H](C)Cc2ccccc2)cc(C(=O)Nc2ccc(C(=O)O)cn2)c1 |
| 12.9 µM (≈ 3.67 µg/mL) | COc1ccccc1Oc1coc2cc(O)ccc2c1=O |
| 15.5 µM (≈ 6.48 µg/mL) | COc1cc2ncnc(Nc3ccc(F)c(Cl)c3)c2cc1CN(C)[C@H](C)C(N)=O |

The remaining lines, values behind:

| SMILES | solubility thermodynamic |
| --- | --- |
| O=C(NC1C2CC3CC(C2)CC1C3)[C@H]1CCCN1Cc1ccc(Cl)cc1 (stereo partly specified) | 21.4 µM (≈ 7.98 µg/mL) |
| CNC(=O)[C@H](Cc1ccccc1)NC(=O)[C@H](CC(C)C)[C@H](CSc1ccccc1)C(=O)NO | 11.2 µM (≈ 5.28 µg/mL) |
| O=C(c1ccc(F)cc1)C1CCN(C(=O)c2ccccc2Cl)CC1 | 28.8 µM (≈ 9.96 µg/mL) |
| Cc1ccc(C(=O)N2CCC(C(=O)c3ccc(F)cc3)CC2)cc1 | 20.4 µM (≈ 6.64 µg/mL) |
| O=C(c1ccc(F)cc1)C1CCN(C(=O)c2ccc(OC(F)(F)F)cc2)CC1 | 11.5 µM (≈ 4.55 µg/mL) |
| O=C(c1ccc(F)cc1)C1CCN(C(=O)c2cccc(OC(F)(F)F)c2)CC1 | 11 µM (≈ 4.35 µg/mL) |
| O=C(c1ccc(F)cc1)C1CCN(C(=O)c2ccc(F)cc2Cl)CC1 | 14.5 µM (≈ 5.27 µg/mL) |
| CN(C)S(=O)(=O)n1c2ccccc2c2cc(NC(=O)CCc3ccncc3)ccc21 | 9.5 µM (≈ 4.01 µg/mL) |
| CN(C)CCSc1nc2ccc(Br)cc2cc1-c1ccccc1 | 9.5 µM (≈ 3.68 µg/mL) |
| O=C(NCc1ccccc1)c1cccn(Cc2ccccc2)c1=O | 26.3 µM (≈ 8.37 µg/mL) |
| Cc1ccc(C(=O)N2CCC(C(=O)c3c(C)cc(C)cc3C)CC2)cc1 | 9.3 µM (≈ 3.25 µg/mL) |
| c1ccc(-c2nnc(-c3ccccc3)o2)cc1 | 15.8 µM (≈ 3.51 µg/mL) |
| Clc1ccc(-c2cn3cccnc3n2)cc1 | 20 µM (≈ 4.59 µg/mL) |
| O=C(c1ccc(Cl)cc1)C1CCN(C(=O)c2ccccc2)CC1 | 29.5 µM (≈ 9.67 µg/mL) |
| O=C(c1ccccc1)C1CCN(C(=O)c2c(F)cccc2F)CC1 | 13.2 µM (≈ 4.35 µg/mL) |
| O=C(c1nnsc1S(=O)(=O)c1ccc(Cl)cc1)N1CCOCC1 | 17 µM (≈ 6.36 µg/mL) |
| CCC(=O)Nc1c(C#N)c2nc3ccccc3nc2n1-c1ccccc1C | 13.5 µM (≈ 4.8 µg/mL) |
| CN(C)C(=O)c1nnsc1Sc1ccc(Cl)cc1 | 31.6 µM (≈ 9.47 µg/mL) |
| O=C(NC1CCCC1)C1CCCN(S(=O)(=O)c2cccc3cccnc23)C1 (stereo unspecified) | 8.7 µM (≈ 3.37 µg/mL) |
| O=C(c1ccccc1)C1CCN(C(=O)c2ccc(Cl)cc2)CC1 | 28.8 µM (≈ 9.44 µg/mL) |
| Cc1ccc2nc(-c3ccccc3)cc(O)c2c1 | 22.9 µM (≈ 5.39 µg/mL) |
| CC(C)(C)OC(=O)N1CCC[C@H]1C(=O)Nc1ccc(Br)cc1 | 23.4 µM (≈ 8.64 µg/mL) |

| SMILES | solubility thermodynamic |
| --- | --- |
| Cc1cccc(C)c1NC(=O)N1CCC(C(=O)c2ccc(F)cc2)CC1 | 18.6 µM (≈ 6.59 µg/mL) |
| Cc1ccccc1N(C)c1ccnc(Nc2cc(N3CCOCC3)cc(N3CCOCC3)c2)n1 | 30.9 µM (≈ 14.2 µg/mL) |
| COc1cccc(N(C)c2ccnc(Nc3cc(N4CCOCC4)cc(N4CCOCC4)c3)n2)n1 | 15.5 µM (≈ 7.4 µg/mL) |
| Cc1ccc(CO)cc1N(C)c1ccnc(Nc2cc(N3CCOCC3)cc(S(C)(=O)=O)c2)n1 | 15.8 µM (≈ 7.64 µg/mL) |
| Cc1cc(F)ccc1CCC1CCN(S(=O)(=O)CC2(N(O)C=O)CCOCC2)CC1 | 13.8 µM (≈ 6.11 µg/mL) |
| CN(C(=O)Cc1ccc(Br)cc1)C1CCN(CCC(c2ccccc2)c2ccccc2)CC1 | 21.9 µM (≈ 11.1 µg/mL) |
| COc1cc(N2CCOCC2)ccc1Nc1ncc(Cl)c(-c2cnc3ccccn23)n1 | 16.2 µM (≈ 7.08 µg/mL) |
| COc1cc(N2CCN(C(C)=O)CC2)ccc1Nc1ncc(F)c(-c2cnc3ccccn23)n1 | 14.5 µM (≈ 6.69 µg/mL) |
| N#Cc1c(C2CCCNC2)cc(-c2c(O)cccc2OCC2CC2)nc1N (stereo unspecified) | 8.1 µM (≈ 2.95 µg/mL) |
| C=CCN(C(=O)NCc1cccc(C)c1)C1CCN(CCC(c2ccccc2)c2ccccc2)CC1 | 9.1 µM (≈ 4.38 µg/mL) |
| Cc1cc(C)c(N2C(=O)CC(Sc3ccccc3N)C2=O)c(C)c1 (stereo unspecified) | 9.3 µM (≈ 3.17 µg/mL) |
| COc1cnc(Cl)c(Nc2ncnc3cc(OCCN4CCN(C(C)=O)CC4)cc(OC(C)C)c23)n1 | 22.4 µM (≈ 11.6 µg/mL) |
| O=c1cc(-c2ccccc2)[nH]c2c(Cl)cccc12 | 30.9 µM (≈ 7.9 µg/mL) |
| Cc1nc(-c2ccc(CN3CCC(N(C)C(=O)Cc4ccc(-n5cnnn5)cc4)CC3)cc2)no1 | 10.2 µM (≈ 4.82 µg/mL) |
| CN(C(=O)Cc1ccc(-n2cnnn2)cc1)C1CCN(Cc2nc3c(s2)CCCC3)CC1 | 9.8 µM (≈ 4.43 µg/mL) |
| CN(C(=O)Cc1ccc(-n2cnnn2)cc1)[C@@H]1CCN(Cc2ccc(C(F)(F)F)cc2)C[C@@H]1F | 16.2 µM (≈ 7.72 µg/mL) |
| CN(C(=O)Cc1ccc(S(C)(=O)=O)cc1)[C@@H]1CCN(Cc2nc3ccccc3s2)C[C@@H]1F | 9.1 µM (≈ 4.33 µg/mL) |
| COC(=O)N[C@H](C(=O)N1CCC[C@H]1c1nc(-c2ccc(-c3ccc(-c4c[nH]c([C@@H]5CCCN5C(=O)[C@@H](NC(=O)OC)C(C)C)n4)cc3)cc2)c[nH]1)C(C)C | 10.2 µM (≈ 7.54 µg/mL) |
| CS(=O)(=O)Cc1cc(N2CCOCC2)nc(-c2ccc3[nH]ccc3c2)n1 | 9.3 µM (≈ 3.46 µg/mL) |
| CS(=O)(=O)Cc1cc(N2CCOCC2)nc(-c2cccc3[nH]ccc23)n1 | 12.9 µM (≈ 4.8 µg/mL) |
| CS(=O)(=O)Cc1cc(N2CCOCC2)nc(-c2ccc(NS(C)(=O)=O)cc2)n1 | 11.2 µM (≈ 4.78 µg/mL) |
| NC1(c2ccc(-c3nn4cccc4cc3-c3ccccc3)cc2)CCC1 | 26.3 µM (≈ 8.93 µg/mL) |

| SMILES | solubility thermodynamic |
| --- | --- |
| CC(C)C(NC(=O)c1cnoc1C(C)(C)C)C(=O)c1ccc(C#N)cc1 (stereo unspecified) | 20 µM (≈ 7.07 µg/mL) |
| C[C@@H](O)C(=O)N1CC=C(c2c(F)cc(N3C[C@H](COc4ccon4)OC3=O)cc2F)CC1 | 25.1 µM (≈ 11.3 µg/mL) |
| c1ccc(-c2nc[nH]c2-c2ccccc2)cc1 | 22.9 µM (≈ 5.04 µg/mL) |
| CN1CCC(c2cc(N3CCOCC3)nc(-c3cccc4[nH]ccc34)n2)(S(C)(=O)=O)CC1 | 21.4 µM (≈ 9.75 µg/mL) |
| CS(=O)(=O)C1(c2cc(N3CCOCC3)nc(-c3cccc(N)c3)n2)CC1 | 13.2 µM (≈ 4.94 µg/mL) |
| N#Cc1ccc(CN2CCN(c3ccc4nnc(C(F)(F)F)n4n3)CC2)cc1 | 11.5 µM (≈ 4.45 µg/mL) |
| C[C@@H](Oc1cccc2ncnc(Nc3ccc4c(cnn4Cc4cscn4)c3)c12)C(N)=O | 8.7 µM (≈ 3.88 µg/mL) |
| O=C(N1CCC(c2ccncc2)CC1)N1CCN(S(=O)(=O)c2ccc(Cl)cc2)CC1 | 8.7 µM (≈ 3.91 µg/mL) |
| OC1(C#Cc2ccc(-c3ccccc3)cc2)CN2CCC1CC2 (stereo unspecified) | 14.8 µM (≈ 4.49 µg/mL) |
| CC(C)Oc1cc(OCCc2ccccc2)cc(C(=O)Nc2ccc(C(=O)O)cn2)c1 | 28.8 µM (≈ 12.1 µg/mL) |
| O=c1[nH]c2cc(Cl)c([N+](=O)[O-])cc2c(O)c1-c1ccccc1 | 29.5 µM (≈ 9.34 µg/mL) |
| Nc1ccccc1NC(=O)c1ccc(N2CCN(Cc3ccccc3)CC2)cc1 | 28.2 µM (≈ 10.9 µg/mL) |
| OC1CCN(CCOc2n[nH]c3ncnc(Nc4ccc(OCc5ccccn5)c(Cl)c4)c23)CC1 | 13.8 µM (≈ 6.84 µg/mL) |
| C[C@@H](CN(C)C(=O)CO)Oc1cccc2ncnc(Nc3ccc(OCc4ccccn4)c(Cl)c3)c12 | 8.9 µM (≈ 4.52 µg/mL) |
| COc1ccc(Cl)c(Nc2ncnc3cc(OCCN4CCOCC4)cc(OC(C)C)c23)n1 | 26.9 µM (≈ 12.7 µg/mL) |
| COc1ccc(-c2cc(N)c(C(N)=O)s2)cc1 | 30.9 µM (≈ 7.67 µg/mL) |
| CS(=O)(=O)c1cccc(Nc2nccc(Nc3c(Cl)ccc4c3OCO4)n2)c1 | 30.2 µM (≈ 12.6 µg/mL) |
| Cc1ncc(-c2ccnc(Nc3ccc(N4CCN(S(C)(=O)=O)CC4)cc3)n2)n1C(C)C | 8.9 µM (≈ 4.05 µg/mL) |
| NC(=O)Nc1sc(-c2ccc(OC(F)(F)F)cc2)cc1C(N)=O | 11 µM (≈ 3.8 µg/mL) |
| CC(=O)N(C1=C(NCCO)C(=O)c2ccccc2C1=O)c1cccc(Br)c1 | 11.7 µM (≈ 5.02 µg/mL) |
| CN(C)CCNS(=O)(=O)c1ccc(Nc2nccc(-c3cnc4ccccn34)n2)cc1 | 30.9 µM (≈ 13.5 µg/mL) |
